Test results published in US11014895B2, “Heterocyclic urea compound, and drug composition and application thereof” (CHINA PHARMACEUTICAL UNIVERSITY, priority 2017, dated 2021).

How the values were obtained:
IDO1 enzyme = IDO1 enzyme (Homo sapiens, UniProt P14902); assay: Determination of biochemical activity of IDO1 enzyme (absorbance at 320 nm); settings: room temperature, 3 hours
How it was run: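 Absorbance at 320 nm was measured after a 3-hour room-temperature reaction of enzyme with compound. Phosphate buffer at pH 7-8 was used; inhibition was derived from the absorption ratio and fitted to IC50.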

[1] = biological target: T1, IDO1 enzyme in the Hela cell (Homo sapiens, UniProt P14902); assay: Cell activity: interferon γ-stimulated Hela cells, absorbance of supernatant at 480 nm; format: cell-based; settings: interferon γ 100 ng/ml, 72 hours
T1 construct: endogenous in cells; host or cells: HeLa cells stimulated with interferon γ (100 ng/ml)
How it was run: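 Kynurenine-type readout: supernatant from IFN-γ-stimulated (100 ng/ml final) HeLa cells, 72 h with compound, was acid-hydrolysed with trichloroacetic acid (50 °C, 30 min). After centrifugation, 2% dimethylaminobenzaldehyde/acetic acid added and absorbance measured at 480 nm.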

T1 sequence (P14902 whole entry): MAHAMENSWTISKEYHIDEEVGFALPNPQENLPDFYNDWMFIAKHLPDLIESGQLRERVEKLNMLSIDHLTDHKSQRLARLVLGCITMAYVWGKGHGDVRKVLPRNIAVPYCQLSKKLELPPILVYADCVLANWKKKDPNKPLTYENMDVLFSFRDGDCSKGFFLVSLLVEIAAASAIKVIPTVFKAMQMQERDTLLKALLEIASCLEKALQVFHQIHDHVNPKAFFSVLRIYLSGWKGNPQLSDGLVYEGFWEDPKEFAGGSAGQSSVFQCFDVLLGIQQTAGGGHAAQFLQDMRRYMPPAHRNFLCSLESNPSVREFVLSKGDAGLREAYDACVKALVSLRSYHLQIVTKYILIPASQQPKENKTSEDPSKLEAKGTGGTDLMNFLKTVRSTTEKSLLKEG
Sequence of IDO1 enzyme (P14902 whole entry): as above

SMILES	IC50 (IDO1 enzyme) [µM]	IC50 [1] [µM]
COc1ccc(NC(=S)Nc2nonc2/C(=N/O)Nc2ccc(F)c(Br)c2)c(F)c1 [Embodiment 120]	> 1	> 1
O=C(Nc1conc1/C(=N/O)Nc1ccc(F)c(Br)c1)NC1CC1 [Embodiment 107, (Z)-1-(4-(N-(3-bromo-4-fluorophenyl)-N′-hydroxyaminoiminomethyl)-isoxazole-3-substituted)-4-cyclopropylurea]	> 1	> 1
O=C(Nc1ncccn1)Nc1nonc1/C(=N/O)Nc1ccc(F)c(Br)c1 [Embodiment 43, (Z)-1-(4-(N-(3-bromo-4-fluorophenyl)-N′-hydroxyaminoiminomethyl)-1,2,5-oxadiazole-3-substituted)-3-(pyrimidine-2-substituted)urea]	> 1	> 1
O=C(Nc1ccsc1)Nc1nonc1/C(=N/O)Nc1ccc(F)c(Br)c1 [Embodiment 42, (Z)-1-(4-(N-(3-bromo-4-fluorophenyl)-N′-hydroxyaminoiminomethyl)-1,2,5-oxadiazole-3-substituted)-3-(thiophene-3-substituted)urea]	> 1	> 1
O=C(Nc1ccc(F)cc1)Nc1nonc1/C(=N/O)Nc1ccc(F)c(Br)c1 [Embodiment 5, (Z)-1-(4-(N-(4-bromo-3-fluorophenyl)-N′-hydroxyaminoiminomethyl)-1,2,5-oxadiazole-3-substituted)-3-(4-fluorophenyl)urea]	> 1	> 1
COc1cccc(NC(=O)Nc2conc2/C(=N/O)Nc2ccc(F)c(Br)c2)c1 [Embodiment 101, (Z)-1-(4-(N-(3-bromo-4-fluorophenyl)-N′-hydroxyaminoiminomethyl)-isoxazole-3-substituted)-4-(3-methoxyphenyl)urea]	0.1 to 1	0.1 to 1
NC1CCC(NC(=O)Nc2cocc2/C(=N/O)Nc2ccc(F)c(Br)c2)CC1 (stereo not drawn) [Embodiment 66, (Z)-1-(4-(N-(3-bromo-4-fluorophenyl)-N′-hydroxyaminoiminomethyl)-furan-3-substituted)-3-(4-aminocyclohexyl)urea]	0.1 to 1	0.1 to 1
CS(=O)(=O)N1CCN(C(=O)Nc2nonc2/C(=N/O)Nc2ccc(F)cc2)CC1 [Embodiment 53]	0.1 to 1	0.1 to 1
O=C(Nc1ccncc1)Nc1nonc1/C(=N/O)Nc1ccc(F)c(Br)c1 [Embodiment 35]	0.1 to 1	0.1 to 1
CC(C)NC(=O)Nc1cocc1/C(=N/O)Nc1ccc(F)c(Br)c1 [Embodiment 71, (Z)-1-(4-(N-(3-bromo-4-fluorophenyl)-N′-hydroxyaminoiminomethyl)-furan-3-substituted)-3-isopropylurea]	0.1 to 1	0.1 to 1
O=C(Nc1nonc1/C(=N/O)Nc1ccc(F)c(Br)c1)NC1CCCC1 [Embodiment 8, (Z)-1-(4-(N-(3-bromo-4-fluorophenyl)-N′-hydroxyaminoiminomethyl)-1,2,5-oxadiazole-3-substituted)-3-cyclopentylurea]	0.1 to 1	0.1 to 1
O=C(Nc1nonc1/C(=N/O)Nc1ccc(F)c(Br)c1)Nc1c[nH]c2ccccc12 [Embodiment 37, (Z)-1-(4-(N-(3-bromo-4-fluorophenyl)-N′-hydroxyaminoiminomethyl)-1,2,5-oxadiazole-3-substituted)-3-(1H-indole-3-substituted)urea]	0.1 to 1	0.1 to 1
COc1ccc(NC(=O)Nc2conc2/C(=N/O)Nc2ccc(F)c(Cl)c2)cc1 [Embodiment 112, (Z)-1-(4-(N-(3-chloro-4-fluorophenyl)-N′-hydroxyaminoiminomethyl)-isoxazole-3-substituted)-4-(4-methoxyphenyl)urea]	0.1 to 1	0.1 to 1
COc1ccccc1NC(=O)Nc1nonc1/C(=N/O)Nc1ccc(F)c(Br)c1 [Embodiment 3, (Z)-1-(4-(N-(3-bromo-4-fluorophenyl)-N′-hydroxyaminoiminomethyl)-1,2,5-oxadiazole-3-substituted)-3-(2-methoxyphenyl)urea]	> 1	> 1
COc1cccc(NC(=O)Nc2cocc2/C(=N/O)Nc2ccc(F)c(Br)c2)c1 [Embodiment 59, (Z)-1-(4-(N-(3-bromo-4-fluorophenyl)-N′-hydroxyaminoiminomethyl)-furan-3-substituted)-3-(3-methoxyphenyl)urea]	> 1	> 1
COc1ccc(NC(=O)Nc2nonc2/C(=N/O)Nc2ccc(F)c(Br)c2)c(F)c1 [Embodiment 20, (Z)-1-(4-(N-(3-bromo-4-fluorophenyl)-N′-hydroxyaminoiminomethyl)-1,2,5-oxadiazole-3-substituted)-3-(4-methoxy-2-fluorophenyl)urea]	0.1 to 1	0.1 to 1
N=C(Nc1conc1/C(=N/O)Nc1ccc(F)c(Cl)c1)NC1CCCCC1 [Embodiment 156, (Z)-1-(4-(N-(3-chloro-4-fluorophenyl)-N′-hydroxyaminoiminomethyl)-isoxazole-3-substituted)-4-cyclohexylguanidine]	0.1 to 1	0.1 to 1

The remaining lines, values ahead:

IC50 (IDO1 enzyme) [µM]	IC50 [1] [µM]	SMILES
< 0.001	< 0.001	N=C(NCCO)Nc1nonc1/C(=N/O)Nc1ccc(F)c(Br)c1 [Embodiment 152, (Z)-1-(4-(N-(3-bromo-4-fluorophenyl)-N′-hydroxyaminoiminomethyl)-1,2,5-oxadiazole-3-substituted)-3-(2-hydroxyethyl)guanidine]
0.1 to 1	0.1 to 1	O=C(Nc1nonc1/C(=N/O)Nc1ccc(F)c(Br)c1)Nc1cccc2[nH]ccc12 [Embodiment 34, (Z)-1-(4-(N-(3-bromo-4-fluorophenyl)-N′-hydroxyaminoiminomethyl)-1,2,5-oxadiazole-3-substituted)-3-(1H-indole-4-substituted)urea]
0.1 to 1	0.1 to 1	CCCNC(=O)Nc1cocc1/C(=N/O)Nc1ccc(F)c(Br)c1 [Embodiment 70, (Z)-1-(4-(N-(3-bromo-4-fluorophenyl)-N′-hydroxyaminoiminomethyl)-furan-3-substituted)-3-propylurea]
< 0.001	< 0.001	NCCNC(=O)Nc1nocc1/C(=N/O)Nc1ccc(F)c(Br)c1 [Embodiment 90, (Z)-1-(4-(N-(3-bromo-4-fluorophenyl)-N′-hydroxyaminoiminomethyl)-isoxazole-3-substituted)+3-(2-aminoethyl)urea]
0.1 to 1	0.1 to 1	O=C(Nc1cccnc1)Nc1cocc1/C(=N/O)Nc1ccc(F)c(Br)c1 [Embodiment 75, (Z)-1-(4-(N-(3-bromo-4-fluorophenyl)-N′-hydroxyaminoiminomethyl)-furan-3-substituted)-3-(3-aminopyridine)urea]
0.1 to 1	0.1 to 1	COc1ccc(NC(=N)Nc2nonc2/C(=N/O)Nc2ccc(F)c(Br)c2)c(F)c1 [Embodiment 144]
0.1 to 1	0.1 to 1	COc1ccc(NC(=S)Nc2nonc2/C(=N/O)Nc2ccc(F)c(Br)c2)cc1 [Embodiment 115, (Z)-1-(4-(N-(3-bromo-4-fluorophenyl)-N′-hydroxyaminoiminomethyl)-1,2,5-oxadiazole-3-substituted)-3-(4-methoxyphenyl)thiourea]
< 0.001	< 0.001	NS(=O)(=O)N1CCN(C(=O)Nc2nonc2/C(=N/O)Nc2ccc(F)cc2)CC1 [Embodiment 56]
< 0.001	< 0.001	NC1CCC(NC(=O)Nc2nocc2/C(=N/O)Nc2ccc(F)c(Br)c2)CC1 (stereo not drawn) [Embodiment 87, (Z)-1-(4-(N-(3-bromo-4-fluorophenyl)-N′-hydroxyaminoiminomethyl)-isoxazole-3-substituted)-3-(4-aminocyclohexyl)urea]
0.1 to 1	0.1 to 1	COc1ccc(NC(=O)Nc2nocc2/C(=N/O)Nc2ccc(F)c(Br)c2)cc1 [Embodiment 79, (Z)-1-(4-(N-(3-bromo-4-fluorophenyl)-N′-hydroxyaminoiminomethyl)-isoxazole-3-substituted)-3-(4-methoxyphenyl)urea]
0.1 to 1	0.1 to 1	COc1ccc(NC(=O)Nc2nonc2/C(=N/O)Nc2ccc(F)c(Br)c2)cc1 [Embodiment 1, (Z)-1-(4-(N-(3-bromo-4-fluorophenyl)-N′-hydroxyaminoiminomethyl)-1,2,5-oxadiazole-3-substituted)-3-(4-methoxyphenyl)urea]
< 0.001	< 0.001	Nc1ccc(NC(=S)Nc2nonc2/C(=N/O)Nc2ccc(F)c(Br)c2)cc1 [Embodiment 118, (Z)-1-(4-(N-(3-bromo-4-fluorophenyl)-N′-hydroxyaminoiminomethyl)-1,2,5-oxadiazole-3-substituted)-3-(4-aminophenyl)thiourea]
< 0.001	< 0.001	N=C(NCCCO)Nc1nonc1/C(=N/O)Nc1ccc(F)c(Br)c1 [Embodiment 151, (Z)-1-(4-(N-(3-bromo-4-fluorophenyl)-N′-hydroxyaminoiminomethyl)-1,2,5-oxadiazole-3-substituted)-3-(3-hydroxypropyl)guanidine]
< 0.001	< 0.001	NCCCNC(=O)Nc1nocc1/C(=N/O)Nc1ccc(F)c(Br)c1 [Embodiment 88, (Z)-1-(4-(N-(3-bromo-4-fluorophenyl)-N′-hydroxyaminoiminomethyl)-isoxazole-3-substituted)-3-(3-propyl)urea]
< 0.001	< 0.001	O=C(Nc1cocc1/C(=N/O)Nc1ccc(F)c(Br)c1)NC1CCC(O)CC1 (stereo not drawn) [Embodiment 63, (Z)-1-(4-(N-(3-bromo-4-fluorophenyl)-N′-hydroxyaminoiminomethyl)-furan-3-substituted)-3-(4-hydroxycyclohexyl)urea]
< 0.001	< 0.001	NS(=O)(=O)NCCNC(=O)Nc1nonc1/C(=N/O)Nc1ccc(F)c(Cl)c1 [Embodiment 30]
